Entries after “also recorded” stand apart in the source; their conditions may differ.
What was measured:
[1] = molecular target: T1, RNase L / pre-miR-21 ternary complex (Homo sapiens, UniProt Q05823); experiment: RNase L immunoprecipitation; type: cell-based; settings: 1 μM
T1 construct: endogenous in cells; host or cells: MDA-MB-231
T1 sequence (Q05823 1-741): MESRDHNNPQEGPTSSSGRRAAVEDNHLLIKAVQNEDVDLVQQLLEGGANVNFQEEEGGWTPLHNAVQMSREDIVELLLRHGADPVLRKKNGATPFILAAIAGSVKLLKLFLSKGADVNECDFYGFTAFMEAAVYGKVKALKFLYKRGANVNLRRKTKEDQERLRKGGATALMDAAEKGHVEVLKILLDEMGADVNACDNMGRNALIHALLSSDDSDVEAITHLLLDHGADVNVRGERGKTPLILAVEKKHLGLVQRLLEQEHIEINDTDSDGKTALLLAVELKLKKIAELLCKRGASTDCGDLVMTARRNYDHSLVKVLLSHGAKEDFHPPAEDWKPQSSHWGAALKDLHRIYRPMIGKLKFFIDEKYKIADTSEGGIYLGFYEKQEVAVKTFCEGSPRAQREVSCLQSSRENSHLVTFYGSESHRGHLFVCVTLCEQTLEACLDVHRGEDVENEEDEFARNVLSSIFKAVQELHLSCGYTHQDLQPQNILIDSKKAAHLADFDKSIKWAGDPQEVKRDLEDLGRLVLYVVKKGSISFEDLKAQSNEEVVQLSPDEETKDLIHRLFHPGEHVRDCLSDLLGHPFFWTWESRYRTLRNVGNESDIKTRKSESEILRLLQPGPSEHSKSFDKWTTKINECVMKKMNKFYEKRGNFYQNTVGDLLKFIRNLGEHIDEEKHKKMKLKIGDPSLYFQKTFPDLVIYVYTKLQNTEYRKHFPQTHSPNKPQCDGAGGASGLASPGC
Method: RNase L Immunoprecipitation. MDA-MB-231 cells were seed in 6-well plates and were treated with vehicle, 4 (1 μM) or 5 (1 μM) when the cells reached ~70% confluency. After 48 h, the cells were harvested and lysed in 100 μL of M-PER buffer containing protease inhibitor and RNaseOUT recombinant Ribonuclease Inhibitor (Invitrogen) on ice for 20 min. The lysate was centrifuged at 13,000×g for 15 min, and the supernatants were incubated with Dynabeads Protein A (Life Technologies) bound to RNase L mouse primary antibody or β-actin mouse primary antibody overnight at 4° C. After incubation, the beads were washed with 1×DPBS containing 0.02% (v/v) Tween-20, and RNA was extracted by using a miRNeasy Mini Kit (Qiagen) per the manufacturer's instructions. RT-qPCR was performed as described above. Relative RNA levels were determined by ΔΔCt method by normalizing to 18S rRNA levels. Normalized fold change was calculated as previously described^6.

[2] = test system: Alport mice (Col4a3−/−); experiment: Alport mice studies; type: in vivo, mouse
Method: (§1) Alport Mice Studies. Alport mice (Col4a3^−/−) and wild type (WT) mice (Col4a3^+/+) were obtained from the breeding of heterozygous […]. Urine was collected 1 day before the treatment, considered as Day 1. The treatment started at Day 2, at around 4 weeks of age. Alport mice were treated with vehicle or 2 as described for NOD/SCID mice in the “In Vivo Studies to Assess Metastasis of Breast Cancer to the Lung” section. Urine was collected every other day for analysis of albumin or creatine levels. After 6 weeks of treatment, the mice were euthanized on Day 43. One kidney was frozen in −80° C. for Western blot and RT-qPCR analyses. The other kidney was fixed in formalin for paraffin-embedding sectioning and further staining.
(§2) Evaluation of Kidney Function. The concentration of urine albumin was determined by using a Mouse Albumin ELISA Kit (Bethyl Laboratories Inc, E99-134) per the manufacturer's protocol. Urine creatinine level was measured by using a Urinary Creatinine Assay Kit (Fisher Scientific, 50-673-569) per the manufacturer's protocol.
(§3) Kidney Tissue Histology. Silver staining, PAS staining, and PPARα staining were performed by Histology Core at Scripps Research Florida. The anti-PPARα (Abcam, ab215270) was used at 1:1000 dilution. FISH imaging of miR-21 and pre-miR-21 were completed as described in “Lung Tissue Histology”.

[3] = test system: all miRNAs expressed in MDA-MB-231 cells; experiment: Global miRNA profiling in MDA-MB-231 cells; type: cell-based, human
Method: RNA Isolation and Quantitative Real-Time PCR (RT-qPCR). After treatment, total RNA was extracted and purified by using the Zymo Quick-RNA mini prep kit per the manufacturer's protocol. Reverse Transcription (RT) for mature miRNAs as well as pri- and pre-miR-21 was completed on 200 ng of RNA by using a miScript 11 RT kit (QIAGEN) according to manufacturer's protocol. RT of mRNAs was performed by using QScript kit (Quanta Bio). An Applied Biosystems QS5 384-well PCR system was used to complete qPCR experiments using Power Sybr Green Mater Mix (Life Technologies) as described previously^6.

[4] = test system: wild type (WT) mice (Col4a3+/+); experiment: Wild type mice, control for Alport studies; type: in vivo, mouse
Method: as §1, §2, §3

For `CCOC(=O)C1=C(Nc2ccccc2)S/C(=C\c2ccc(OCCOCCOCCOCCNC(=O)NCCN3CCN(c4ccc5[nH]c(-c6c(N)c7c(F)cccc7[nH]c6=O)nc5c4)CC3)c(O)c2)C1=O` [Compound 2, Ribotac-Dovitinib], the “enrichment of pre-miR-21 in RNase L immunoprecipitation” value ([1]; MDA-MB-231) was “immunoprecipitated pre-miR-21; also recorded: enriched”, the “enrichment of pre-miR-210 in RNase L immunoprecipitation” value ([1]; pre-miRNA without 1-binding site) was “did not enrich” and the “body weight of Alport mice” value ([2]; 56 mg/kg q.o.d.) was “gained more weight than vehicle-treated mice”. For the same molecule, the “urine albumin normalized to urine creatinine” value ([2]; 56 mg/kg, q.o.d., 42 days) was “stabilized; also recorded: decreased urine albumin concentration”, the “PPARα expression in kidneys” value ([2]; Alport mice) was “enhanced; also recorded: derepressed” and the “tubule injury / tubulointerstitial pathology” value ([2]; PAS staining) was “significantly reduced; also recorded: prevented tubule injury”. The “pre-miR-21 levels in kidneys” value ([2]; both Alport and WT mice) was “reduced; also recorded: decreased”, the “mature miR-21 levels in kidneys” value ([2]; both WT and Alport mice, RT-qPCR) was “decreased miR-21 levels; also recorded: reduced” and the glomerulosclerosis ([2]; silver methenamine staining) was “prevents glomerulosclerosis and tubular atrophy; also recorded: significantly reduced”. For the same molecule, the “selectivity among all miRNAs” value [3] was “more selective than 1; also recorded: greater selectivity”, the “body weight of WT mice” value ([4]; 56 mg/kg q.o.d., 6 weeks) was “gained weight at a similar rate as vehicle-treated mice” and the “PPARα expression in kidneys” value ([4]; WT mice) was “no significant effect”. The “urine albumin normalized to urine creatinine” value ([4]; WT mice, 56 mg/kg q.o.d.) was “no effect”.
